Test: Anticancer human tumor 997537-175-T-J1-PDC patient-derived colon adenocarcinoma cell line growth inhibition [POLQ]
Settings: 997537-175-T-J1-PDC complex spheroid viability, combination with POLQ inhibitors; for IC50: curve of first compound; for viability, T/C: stronger effect = lower value
Protocol: Multicellular complex tumor spheroid response to Polymerase (POL) inhibitors (novobiocin, ART-558, RP6685) in combination with a variety of drugs and investigational agents in selected tumor cell lines
The POL inhibitors (novobiocin, ART-558, and RP6685) were evaluated both individually and in combination with standard of care and investigational anticancer small molecules within a complex spheroid model of solid tumors. . Complex spheroids include a stromal component modeled by human endothelial cells (HUVEC) and fibroblasts modeled by human mesenchymal stem cells (MSCs). The concentration ranges selected for each drug and investigational agent were based upon clinically achievable concentrations if the clinical Cmax of the agent was known.
Compounds. The drugs and investigational agents: novobiocin (NSC847541), ART-558 (NSC835418), RP-6685 (NSC848927), peposertib (NSC802822), ceralasertib (NSC780249), elimusertib (NSC800525), camonsertib (NSC841442), AZD-1390 (NSC803789), olaparib (NSC753686), talazoparib (NSC767125), rucaparib (NSC756644), sotorasib (NSC818433), MRTX-1133 (NSC836407), SN-38 (NSC673596), topotecan (NSC609699), epotoside (NSC141540), doxorubicin (NSC123127), gemcitabine (NSC613327), 5-fluorouracil (NSC19893), paclitaxel (NSC125973), vemurafenib (NSC761431), MSA-2 (NSC828583), SN-011 (NSC837082), adavosertib (NSC754352), prexasertib (NSC758257), carboplatin (NSC241240) and oxaliplatin (NSC266046), were obtained from the National Cancer Institute (NCI) Developmental Therapeutics Program Chemical Repository (21). The FDA-approved anticancer drug set is available from the Developmental Therapeutics Program at https://dtp.cancer.gov/organization/dscb/obtaining/. […] The stock solutions were prepared in dimethyl sulfoxide (DMSO, Sigma-Aldrich, St. Louis, MO, cat. D2650), except for the platinum compounds which were prepared in saline (Quality Biological, Gaithersburg, MD, cat. 114-055-101), at 800-fold the tested concentration and stored at -70 degrees C prior to their use. All drugs and investigational agents were tested over a range starting from a high concentration at or near the clinical Cmax and decreasing in half-log increments. If the clinical Cmax for an agent had not been determined, the highest concentration tested was 10 microM, except for SN-38, which was tested at a high concentration of 1 microM.
Cell Culture. All cells were maintained in an incubator at 37 degrees C and 5% CO2 with 95% humidity. The PDC lines were cultured according to standard operating procedures established by the NCI PDMR (https://pdmr.cancer.gov). Table 3 of the manuscript, lists the cell lines along with the number of the three cell types plated to form the mct-spheroids and media for tumor cell growth. After thawing, all PDC lines, except 997537-175-T-J1-PDC and 415267-285-R-J2-PDC, were cultured in Matrigel-coated flasks prepared with a working solution of 1X Ham's F-12 nutrient mix, without supplementation (Thermo Fisher Scientific, cat. 11765054), 100 U/mL penicillin-streptomycin (Thermo Fisher Scientific, cat. 15140122), and 2.5% Matrigel (Corning Inc., Corning, NY, cat. 354248) for the first three passages. The two PDC lines 997537-175-T-J1-PDC and 415267-285-R-J2-PDC were cultured on uncoated flasks. The 857933-349-R-J2-PDC line was cultured in 6C/Colon 1B media containing advanced DMEM/F-12 (Thermo Fisher Scientific, cat. 12634028), 10 mM HEPES (Thermo Fisher Scientific, cat. 15630080), 1X GlutaMAX supplement (Thermo Fisher Scientific, cat. 35050061), 0.1 mg/mL primocin (InvivoGen, San Diego, CA, cat. ant-pm-2), 10% defined fetal bovine serum, heat inactivated (HyClone Laboratories Inc., Logan, UT, cat. SH30070.03HI), 50% L-WRN conditioned media (ATCC, cat. CRL-3276), 1.25 mM N-Acetyl-L-cysteine (Sigma-Aldrich, cat. A9165), 10 mM nicotinamide (Sigma-Aldrich, cat. N0636), 1X B-27 supplement (Thermo Fisher Scientific, cat. 17504044), 1X N-2 supplement (Thermo Fisher Scientific, cat. […]
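Note: luminescence signal used as a surrogate for viable cells; spheroids exposed to drugs for seven days before readout.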

For `CC(=O)O[C@H]1C(=O)[C@@]2(C)[C@H]([C@H](OC(=O)c3ccccc3)[C@]3(O)C[C@H](OC(=O)[C@H](O)[C@@H](NC(=O)c4ccccc4)c4ccccc4)C(C)=C1C3(C)C)[C@]1(OC(C)=O)CO[C@@H]1C[C@@H]2O` + COC1C(OC(N)=O)C(O)C(Oc2ccc3c(O)c(NC(=O)c4ccc(O)c(CC=C(C)C)c4)c(=O)oc3c2C)OC1(C)C, the IC50 (second compound 0.0316 µM) was 18.6 nM, the IC50 (second compound 0.1 µM) was under 9.49 nM and the IC50 (second compound 0.316 µM) was 82.6 nM. For the same compound, the IC50 (second compound 1 µM) was 16.5 nM, the IC50 (second compound 3.16 µM) was 14.6 nM and the IC50 (second compound 10 µM) was 17 nM. It also gave a viability, T/C (second compound 0.0316 µM, first compound 0.00949 µM) of 65.5%, a viability, T/C (second compound 0.0316 µM, first compound 0.03 µM) of 41.5% and a viability, T/C (second compound 0.0316 µM, first compound 0.0949 µM) of 24.5%. It also gave a viability, T/C (second compound 0.0316 µM, first compound 0.3 µM) of 41.6%, a viability, T/C (second compound 0.0316 µM, first compound 0.949 µM) of 23.9% and a viability, T/C (second compound 0.0316 µM, first compound 3 µM) of 42%. It also gave a viability, T/C (second compound 0.1 µM, first compound 0.00949 µM) of 46.6%, a viability, T/C (second compound 0.1 µM, first compound 0.03 µM) of 41% and a viability, T/C (second compound 0.1 µM, first compound 0.0949 µM) of 23.9%. It also gave a viability, T/C (second compound 0.1 µM, first compound 0.3 µM) of 44.9%, a viability, T/C (second compound 0.1 µM, first compound 0.949 µM) of 21.9% and a viability, T/C (second compound 0.1 µM, first compound 3 µM) of 28.1%. For the same compound, the viability, T/C (second compound 0.316 µM, first compound 0.00949 µM) was 70.7%, the viability, T/C (second compound 0.316 µM, first compound 0.03 µM) was 60.1% and the viability, T/C (second compound 0.316 µM, first compound 0.0949 µM) was 34.6%. It also gave a viability, T/C (second compound 0.316 µM, first compound 0.3 µM) of 50.9%, a viability, T/C (second compound 0.316 µM, first compound 0.949 µM) of 34% and a viability, T/C (second compound 0.316 µM, first compound 3 µM) of 18.2%. For the same compound, the viability, T/C (second compound 1 µM, first compound 0.00949 µM) was 66.9%, the viability, T/C (second compound 1 µM, first compound 0.03 µM) was 32.5% and the viability, T/C (second compound 1 µM, first compound 0.0949 µM) was 22.9%. It also gave a viability, T/C (second compound 1 µM, first compound 0.3 µM) of 29.6%, a viability, T/C (second compound 1 µM, first compound 0.949 µM) of 29.9% and a viability, T/C (second compound 1 µM, first compound 3 µM) of 35.3%. It also gave a viability, T/C (second compound 3.16 µM, first compound 0.00949 µM) of 61.8%, a viability, T/C (second compound 3.16 µM, first compound 0.03 µM) of 24.9% and a viability, T/C (second compound 3.16 µM, first compound 0.0949 µM) of 22.7%. For the same compound, the viability, T/C (second compound 3.16 µM, first compound 0.3 µM) was 30.7%, the viability, T/C (second compound 3.16 µM, first compound 0.949 µM) was 44% and the viability, T/C (second compound 3.16 µM, first compound 3 µM) was 28.1%. The viability, T/C (second compound 10 µM, first compound 0.00949 µM) was 67.2%, the viability, T/C (second compound 10 µM, first compound 0.03 µM) was 27% and the viability, T/C (second compound 10 µM, first compound 0.0949 µM) was 35.5%. The viability, T/C (second compound 10 µM, first compound 0.3 µM) was 40.1%, the viability, T/C (second compound 10 µM, first compound 0.949 µM) was 27.4% and the viability, T/C (second compound 10 µM, first compound 3 µM) was 35.6%.
